What is called melting point is the temperature, or range, at which the solid turns liquid. The term inhibition denotes the drop in the measured response relative to a control, in per cent. By Ki is commonly meant the equilibrium dissociation constant of an inhibitor or competing ligand from its target.

Data set [1] concerns the target T1, human A1 adenosine receptor (hA1) (Homo sapiens, UniProt P30542).
T1 construct: expressed in transfected cells; host or cells: CHO cells (ATCC No. CCL-61)
T1 sequence (P30542 1-326): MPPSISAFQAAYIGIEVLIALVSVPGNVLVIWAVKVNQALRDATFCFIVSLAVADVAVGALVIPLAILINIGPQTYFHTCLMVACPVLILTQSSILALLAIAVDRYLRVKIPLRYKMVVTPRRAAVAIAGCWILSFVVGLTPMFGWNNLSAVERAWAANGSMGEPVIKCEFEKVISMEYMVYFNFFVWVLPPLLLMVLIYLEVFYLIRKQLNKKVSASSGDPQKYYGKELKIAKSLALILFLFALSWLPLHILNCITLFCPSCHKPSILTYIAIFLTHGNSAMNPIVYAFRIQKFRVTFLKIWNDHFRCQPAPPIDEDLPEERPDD
The data set can be described thus: Binding affinity for human A1 adenosine receptor expressed in CHO cells ([3H]CCPA). The following applies: 10 μM (table footnote); read-out: percentage inhibition of specific binding, hA1.
Description: (§1) CHO cells (ATCC No. CCL-61), in which A1 and A3 adenosine receptors were expressed, were cultured in F-12 media (Gibco, U.S.A.) supplemented with 10% fetal bovine serum (FBS) and penicillin/streptomycin (100 units/ml and 100 g/ml), at 37° C. in a 5% CO2 atmosphere. […] Incubation for 1 hr in a 37° C. incubator was followed by rapid filtration in a vacuum using a cell collector (TOMTEC, U.S.A.). Subsequently, the test tubes were washed three times with 3 ml of the buffer before radioactivity was measured using a γ-counter. […] Ki for binding affinity was determined by subtracting the non-specific binding value from the total binding value. On the basis of the specific binding values, the samples were analyzed for binding affinity to various adenosine receptors.

The test system of data set [2] is TPA-induced inflammation of the mouse ear. The data set can be described thus: Anti-inflammatory activity, TPA-treated mouse ear. The following applies: for percentage of inflammation inhibition: topical, mouse ear; for anti-inflammatory activity relative to Examples 2 to 4: 0.5% in acetone, on the basis of inhibition percentage. In kind it is in vivo, ICR mice. As to the method: The adenosine derivatives of the present invention were examined for anti-inflammatory activity in the following animal test. Seven-week-old male ICR mice were treated with TPA (12-O-tetradecanoylphorbol-13-acetate, 20 μl) in the right ear. […] Hydrocortisone was used at the same concentration as a control.
6 hrs after treatment with TPA, the mice were secondarily treated with the adenosine derivatives of the present invention. 24 hrs after TPA treatment, test animals were euthanized using a cervical dislocation method. Samples were obtained from the right ear using a 6 mm diameter punch. The activity was observed by measuring the ear sample using a microbalance. Percentages of inhibition were calculated using the following Equation 1. The compositions and amounts used in these experiments are summarized in Tables 2 to 5 and the anti-inflammatory activities thereof are shown in FIGS. 2 to 5.

In data set [3] the target is T2, human A2A adenosine receptor (hA2A) (Homo sapiens, UniProt P29274).
T2 construct: expressed in transfected cells; host or cells: HEK 293 cells
The experiment in a line: Binding affinity for A2A adenosine receptor expressed on HEK 293 cell ([3H]CGS-21680). The following applies: 10 μM (table footnote); read-out: percentage inhibition of specific binding, hA2A.
Description: Each of the compounds synthesized in the examples was measured for IC50 at least 6 different concentrations, and the measurements were analyzed using SigmaPlot software to determine Ki values.

The target of data set [4] is T3, human A3 adenosine receptor (hA3 AR) (Homo sapiens, UniProt P0DMS8).
T3 construct: expressed in transfected cells; host or cells: CHO cells (ATCC No. CCL-61)
T3 sequence (P0DMS8 1-318): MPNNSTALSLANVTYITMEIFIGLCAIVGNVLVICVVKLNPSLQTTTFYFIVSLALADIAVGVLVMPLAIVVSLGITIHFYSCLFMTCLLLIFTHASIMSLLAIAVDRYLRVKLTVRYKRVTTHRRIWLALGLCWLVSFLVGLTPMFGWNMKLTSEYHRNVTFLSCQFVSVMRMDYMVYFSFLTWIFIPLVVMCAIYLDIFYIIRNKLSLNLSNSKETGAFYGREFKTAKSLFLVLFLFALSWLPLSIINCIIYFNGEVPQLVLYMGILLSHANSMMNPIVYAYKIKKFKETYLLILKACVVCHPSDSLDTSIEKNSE
The data set can be described thus: Binding affinity for human A3 adenosine receptor expressed in CHO cells ([125I]AB-MECA). The note with it: for Ki: ± SEM, [125I]AB-MECA, CHO cells.
Description: as §1

The test system of data set [5] is NASH- or NAFLD-induced mice. The experiment in a line: Efficacy test on NASH or NAFLD and liver fibrosis in NASH- or NAFLD-induced mice. It counts as in vivo. The note with it: oral once a day, 6 to 10 weeks of age; vs negative control; HE staining. The procedure:
As a comparison group, eight normal mice were given no treatment until 10 weeks of age. As a positive control group, eight NASH- or NAFLD-induced mice were orally administered with 10 mg/kg of telmisartan (i.e., a hypertension medication) once a day for six to 10 weeks of age. As a negative control group, eight NASH- or NAFLD-induced mice were orally administered with only 10 mL/kg of 0.5% methyl cellulose (i.e., a vehicle) once a day for 6 to 10 weeks of age.
Then, for the livers of the experimental animals at 10 weeks of age, the degree of steatosis, inflammation and ballooning were measured using HE staining, and the area of fibrosis was observed and measured using Sirius red staining.

Data set [6] concerns the target T4, human A2B adenosine receptor (Homo sapiens, UniProt P29275).
T4 sequence (P29275 1-332): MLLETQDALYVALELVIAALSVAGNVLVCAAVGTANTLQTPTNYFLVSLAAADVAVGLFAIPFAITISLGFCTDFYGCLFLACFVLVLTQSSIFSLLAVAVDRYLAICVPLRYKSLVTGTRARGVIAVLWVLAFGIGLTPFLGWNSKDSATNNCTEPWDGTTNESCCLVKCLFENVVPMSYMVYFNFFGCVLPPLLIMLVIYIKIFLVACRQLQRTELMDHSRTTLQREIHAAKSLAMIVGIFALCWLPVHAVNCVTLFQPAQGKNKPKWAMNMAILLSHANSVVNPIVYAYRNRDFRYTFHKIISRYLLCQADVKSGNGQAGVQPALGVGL
The experiment in a line: Agonist or antagonist activity on human A2B adenosine receptor. It counts as biochemical.

In data set [7] the target is T5, human A3 adenosine receptor (Homo sapiens, UniProt P0DMS8).
T5 construct: expressed in transfected cells; host or cells: CHO cells
T5 sequence (P0DMS8 1-318): T3 sequence (P0DMS8 1-318)
The experiment in a line: Antagonism of Cl-IB-MECA and cAMP inhibition in CHO cells expressing human A3 adenosine receptor. It counts as cell-based. The note with it: CHO cells expressing hA3 AR, various concentrations.

Setting [8] is: 0.5% in distilled water:acetone (1:4).

T2 sequence (P29274 whole entry): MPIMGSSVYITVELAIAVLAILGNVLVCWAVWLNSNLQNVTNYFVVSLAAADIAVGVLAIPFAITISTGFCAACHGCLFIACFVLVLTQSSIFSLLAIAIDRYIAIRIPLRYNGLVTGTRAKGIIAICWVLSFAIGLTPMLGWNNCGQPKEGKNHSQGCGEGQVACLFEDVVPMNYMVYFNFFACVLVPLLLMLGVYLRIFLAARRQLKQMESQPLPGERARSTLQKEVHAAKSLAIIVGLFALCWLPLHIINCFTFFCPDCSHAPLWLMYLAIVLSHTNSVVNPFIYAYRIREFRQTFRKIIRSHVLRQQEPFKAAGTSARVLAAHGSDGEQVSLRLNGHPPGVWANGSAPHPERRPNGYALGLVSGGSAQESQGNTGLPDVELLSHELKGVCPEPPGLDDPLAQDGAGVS

As to `O[C@@H]1[C@H](O)CS[C@H]1n1cnc2c(NCc3cccc(I)c3)ncnc21` [Example 14, (2R,3R,4S)-2-(6-(3-Iodobenzylamino)-9H-purin-9-yl)tetrahydrothiophen-3,4-diol], the melting point is 198.8 to 199.8 °C.
For `O[C@@H]1[C@H](O)CS[C@H]1n1cnc2c(NCc3ccccc3Cl)nc(Cl)nc21` [Example 5, (2R,3R,4S)-2-(2-Chloro-6-(2-chlorobenzylamino)-9H-purin-9-yl)tetrahydrothiophen-3,4-diol], the melting point fell in the range of 198.7 to 199.7 °C. The inhibition in data set [1] worked out at 12.8%. In addition, the “percentage of inflammation inhibition” value in data set [2] (setting [8]) amounted to 17%.
As to `O[C@@H]1[C@H](O)CS[C@H]1n1cnc2c(NCc3cccc(F)c3)nc(Cl)nc21` [Example 1, (2R,3R,4S)-2-(2-Chloro-6-(3-fluorobenzylamino)-9H-purin-9-yl)tetrahydrothiophen-3,4-diol], the melting point fell in the range of 183.2 to 183.5 °C. Besides, in data set [1], the inhibition at 10 µM was determined as 19.8%. The inhibition in data set [3] turned out to be 47.6%. For the same compound, in data set [2], the “anti-inflammatory activity relative to Examples 2 to 4” value is “four or more times that of the compounds of Examples 2 to 4”.
`O[C@@H]1[C@H](O)CS[C@H]1n1cnc2c(NCc3cccc(Br)c3)nc(Cl)nc21` [Example 3, (2R,3R,4S)-2-(2-Chloro-6-(3-bromobenzylamino)-9H-purin-9-yl)tetrahydrothiophen-3,4-diol]: the melting point lay within 184 to 185 °C. For the same compound, the inhibition at 10 µM in data set [1] is 34.2%. For the same compound, in data set [3], the inhibition is 18.4%.
The compound `O[C@@H]1[C@H](O)CS[C@H]1n1cnc2c(NCc3cccc(Br)c3)ncnc21` [Example 13, (2R,3R,4S)-2-(6-(3-bromobenzylamino)-9H-purin-9-yl)tetrahydrothiophen-3,4-diol] gave a melting point of 183 to 184 °C.
`OC1CO[C@@H](n2cnc3c(NCc4cccc(I)c4)nc(Cl)nc32)C1O` (stereo partly drawn) [Example 16, (2R,3R,4R)-2-(6-(3-iodobenzylamino)-2-chloro-9H-purin-9-yl)tetrahydrofuro-3,4-diol] had a melting point of 195.5 to 195.8 °C. In data set [1], the inhibition at 10 µM stood at 37.7%. Moreover, the inhibition in data set [3] stood at 28.6%. Further, the Ki in data set [4] was 0.0429 ± 0.0089 µM. Also, the “percentage of inflammation inhibition” value in data set [2] (0.5% in DMSO:acetone (1:9)) was 79%.
The compound `COc1ccccc1CNc1nc(Cl)nc2c1ncn2[C@@H]1SC[C@@H](O)[C@H]1O` [Example 7, (2R,3R,4S)-2-(2-chloro-6-(2-methoxybenzylamino)-9H-purin-9-yl)tetrahydrothiophen-3,4-diol] registered a melting point of 188 °C. Besides, the inhibition at 10 µM in data set [1] stood at 9.4%. Moreover, in data set [3], the inhibition worked out at 17.5%.
As to `CCCc1nc2c(C)cc(-c3nc4ccccc4n3C)cc2n1Cc1ccc(-c2ccccc2C(=O)O)cc1` [telmisartan], in data set [5], the “steatosis score of the liver” value is on record as “no significant decrease in steatosis was observed”.
`COc1ccc(Cl)cc1CNc1nc(Cl)nc2c1ncn2[C@@H]1SC[C@@H](O)[C@H]1O` [Example 6, (2R,3R,4S)-2-(2-Chloro-6-(5-chloro-2-methoxybenzylamino)-9H-purin-9-yl)tetrahydrothiophen-3,4-diol] registered a melting point of 188.8 to 189.8 °C. Besides, the inhibition at 10 µM in data set [1] amounted to 23.8%. Besides, the “anti-inflammatory activity relative to Examples 2 to 4” value in data set [2] was “four or more times that of the compounds of Examples 2 to 4”.
`O[C@@H]1[C@H](O)CS[C@H]1n1cnc2c(NCc3cccc4ccccc34)nc(Cl)nc21` [Example 8, (2R,3R,4S)-2-(2-Chloro-6-(naphthalen-1-ylmethylamino)-9H-purin-9-yl)tetrahydrothiophen-3,4-diol]: the melting point was 226.3 °C (dec.). Further, the inhibition at 10 µM in data set [1] worked out at 22%. For the same compound, the inhibition in data set [3] was -8.3%. Besides, the “percentage of inflammation inhibition” value in data set [2] (setting [8]) worked out at 53%.
As for `O[C@@H]1[C@H](O)CS[C@H]1n1cnc2c(NCc3cccc(I)c3)nc(Cl)nc21` [Example 4, (2R,3R,4S)-2-(2-Chloro-6-(3-iodobenzylamino)-9H-purin-9-yl)tetrahydrothiophen-3,4-diol], the “agonist or antagonist on human A2B adenosine receptor” value in data set [6] is “not observed as an agonist or antagonist”. Further, in data set [7], the “inhibition of the agonist effect of Cl-IB-MECA” value is given as “inhibited in a dose-dependent manner”.
For `O=C(O)c1cccc(CNc2nc(Cl)nc3c2ncn3[C@@H]2SC[C@@H](O)[C@H]2O)c1` [Example 9, 3-((2-chloro-9-((2R,3R,4S)-3,4-dihydroxytetrahydrothiophen-2-yl)-9H-purine-6-ylamino)methyl)benzoic acid], the melting point lay within 254 to 256.9 °C. Besides, in data set [1], the inhibition at 10 µM came out at 13.1%. Further, the inhibition in data set [3] was -0.18%. Moreover, the inhibition at 10 µM in data set [4] (10 μM (table footnote), read-out: percentage inhibition of specific binding, hA3) worked out at 41.5%.
In the case of `CNc1nc(Cl)nc2c1ncn2[C@@H]1SC[C@H](O)[C@@H]1O` [Example 10, 2-(2-Chloro-6-methylamino-purin-9-yl)(2R,3 S,4R)-tetrahydrothiophen-3,4-diol], the inhibition at 10 µM in data set [1] was 55.4 ± 1.8%. Also, in data set [3], the inhibition was determined as 45 ± 1.4%. For the same compound, the Ki in data set [4] stood at 0.00369 ± 0.00025 µM.
For `O[C@@H]1[C@H](O)CO[C@H]1n1cnc2c(NCc3cccc(Br)c3)nc(Cl)nc21` [Example 15, (2R,3R,4R)-2-(6-(3-bromobenzylamino)-2-chloro-9H-purin-9-yl)tetrahydrofuran-3,4-diol], the melting point fell in the range of 181.5 to 181.7 °C. Also, in data set [1], the inhibition at 10 µM came out at 39.8%. For the same compound, the inhibition in data set [3] was found to be 22.8%. Further, the “percentage of inflammation inhibition” value in data set [2] (0.5% in DMSO:acetone (1:9)) stood at 59%.

The record behind these values is patent publication US11266650B2, “Pharmaceutical composition for preventing and treating nonalcoholic steatohepatitis, hepatic fibrosis, and liver cirrhosis, comprising adenosine derivatives” (FUTURE MEDICINE CO., LTD., priority 2016, dated 2022).
